Laboratory results taken from ChEMBL document CHEMBL3044624, “Cycloate, an inhibitor of fatty acid elongase, modulates the metabolism of very-long-side-chain alkylresorcinols in rye seedlings” (Pest Manag Sci, 2009).

Experiments:
Secale cereale [1] = test: Change in alkylresorcinol homologue composition in dry shoots of etiolated Secale cereale (rye) seedlings grown from compound-treated seeds at 22 +/-2 degC assessed as C19:0 content at 46 uM by GC/EI-MS analysis (reference value: 1.83 mg/kg dry weight); type: functional
Secale cereale [2] = test: Toxicity against etiolated Secale cereale (rye) seedlings assessed as dry biomass of seedling grown at 29 +/-2 degC at 46 uM measured at 5 days after compound-treated seed germination (reference value: 2.13 +/-0.03 g); type: organism-based; settings: in vivo, 120 h
Secale cereale [3] = test: Change in alkylresorcinol homologue composition in dry shoots of green Secale cereale (rye) seedlings grown from compound-treated seeds at 29 +/-2 degC assessed as C21:1 content at 46 uM by GC/EI-MS analysis (reference value: 0.04 mg/kg dry weight); type: functional
Secale cereale [4] = test: Change in alkylresorcinol homologue composition in dry shoots of etiolated Secale cereale (rye) seedlings grown from compound-treated seeds at 29 +/-2 degC assessed as C23:0 content at 46 uM by GC/EI-MS analysis (reference value: 0.18 mg/kg dry weight); type: functional
Secale cereale [5] = test: Change in alkylresorcinol homologue composition in dry shoots of green Secale cereale (rye) seedlings grown from compound-treated seeds at 15 +/-2 degC assessed as C17:0 content at 46 uM by GC/EI-MS analysis (reference value: 1.46 mg/kg dry weight); type: functional
Secale cereale [6] = test: Change in alkylresorcinol homologue composition in dry shoots of green Secale cereale (rye) seedlings grown from compound-treated seeds at 15 +/-2 degC assessed as C23:0 content at 46 uM by GC/EI-MS analysis (reference value: 0.59 mg/kg dry weight); type: functional
Secale cereale [7] = test: Change in alkylresorcinol homologue composition in dry shoots of etiolated Secale cereale (rye) seedlings grown from compound-treated seeds at 22 +/-2 degC assessed as C25:0 content at 46 uM by GC/EI-MS analysis (reference value: 0.08 mg/kg dry weight); type: functional
Secale cereale [8] = test: Change in alkylresorcinol homologue composition in dry shoots of etiolated Secale cereale (rye) seedlings grown from compound-treated seeds at 29 +/-2 degC assessed as C25:0 content at 46 uM by GC/EI-MS analysis (reference value: 0.06 mg/kg dry weight); type: functional
Secale cereale [9] = test: Change in alkylresorcinol homologue composition in dry shoots of green Secale cereale (rye) seedlings grown from compound-treated seeds at 29 +/-2 degC assessed as C17:0 content at 46 uM by GC/EI-MS analysis (reference value: 0.75 mg/kg dry weight); type: functional
Secale cereale [10] = test: Change in alkylresorcinol content in dry shoots of etiolated Secale cereale (rye) seedlings grown from compound-treated seeds at 15 +/-2 degC at 46 uM by thin layer chromatography (reference value: 8.13 +/-0.14 mg/kg dry weight); type: functional
Secale cereale [11] = test: Toxicity against green Secale cereale (rye) seedlings assessed as fresh biomass of seedling grown at 15 +/-2 degC at 46 uM measured at 5 days after compound-treated seed germination (reference value: 10.70 +/-0.28 g); type: organism-based; settings: in vivo, 120 h
Secale cereale [12] = test: Change in alkylresorcinol homologue composition in dry shoots of etiolated Secale cereale (rye) seedlings grown from compound-treated seeds at 22 +/-2 degC assessed as C15:0 content at 46 uM by GC/EI-MS analysis (reference value: 0.60 mg/kg dry weight); type: functional
Secale cereale [13] = test: Change in alkylresorcinol homologue composition in dry shoots of green Secale cereale (rye) seedlings grown from compound-treated seeds at 29 +/-2 degC assessed as C19:1 content at 46 uM by GC/EI-MS analysis (Rvb =0.17 mg/kg dry weight); type: functional
Secale cereale [14] = test: Change in alkylresorcinol homologue composition in dry shoots of etiolated Secale cereale (rye) seedlings grown from compound-treated seeds at 29 +/-2 degC assessed as C19:1 content at 46 uM by GC/EI-MS analysis (Rvb =0.09 mg/kg dry weight); type: functional
Secale cereale [15] = test: Change in alkylresorcinol homologue composition in dry shoots of etiolated Secale cereale (rye) seedlings grown from compound-treated seeds at 15 +/-2 degC assessed as C21:1 content at 46 uM by GC/EI-MS analysis (reference value: 0.34 mg/kg dry weight); type: functional
Secale cereale [16] = test: Change in alkylresorcinol homologue composition in dry shoots of etiolated Secale cereale (rye) seedlings grown from compound-treated seeds at 15 +/-2 degC assessed as C21:0 content at 46 uM by GC/EI-MS analysis (reference value: 0.78 mg/kg dry weight); type: functional
Secale cereale [17] = test: Change in alkylresorcinol homologue composition in dry shoots of green Secale cereale (rye) seedlings grown from compound-treated seeds at 29 +/-2 degC assessed as C19:0 content at 46 uM by GC/EI-MS analysis (reference value: 0.48 mg/kg dry weight); type: functional
Secale cereale [18] = test: Change in alkylresorcinol homologue composition in dry shoots of green Secale cereale (rye) seedlings grown from compound-treated seeds at 15 +/-2 degC assessed as C19:1 content at 46 uM by GC/EI-MS analysis (reference value: 0.23 mg/kg dry weight); type: functional
Secale cereale [19] = test: Change in alkylresorcinol homologue composition in dry shoots of green Secale cereale (rye) seedlings grown from compound-treated seeds at 22 +/-2 degC assessed as C23:0 content at 46 uM by GC/EI-MS analysis (reference value: 0.54 mg/kg dry weight); type: functional
Secale cereale [20] = test: Change in alkylresorcinol homologue composition in dry shoots of etiolated Secale cereale (rye) seedlings grown from compound-treated seeds at 29 +/-2 degC assessed as C21:1 content at 46 uM by GC/EI-MS analysis (reference value: 0.04 mg/kg dry weight); type: functional
Secale cereale [21] = test: Change in alkylresorcinol content in dry shoots of green Secale cereale (rye) seedlings grown from compound-treated seeds at 15 +/-2 degC at 46 uM by thin layer chromatography (reference value: 4.15 +/-0.02 mg/kg dry weight); type: functional
Secale cereale [22] = test: Toxicity against green Secale cereale (rye) seedlings assessed as dry biomass of seedling grown at 29 +/-2 degC at 46 uM measured at 5 days after compound-treated seed germination (reference value: 2.32 +/-0.05 g); type: organism-based; settings: in vivo, 120 h

CCSC(=O)N(CC)C1CCCCC1 [CYCLOATE]
Activity (Secale cereale [1]): 0.7 mg/kg
Activity (Secale cereale [2]): 2.32 g
Activity (Secale cereale [3]): 0.38 mg/kg
Activity (Secale cereale [4]): 0.34 mg/kg
Activity (Secale cereale [5]): 2.75 mg/kg
Activity (Secale cereale [6]): 0.17 mg/kg
Activity (Secale cereale [7]): 0.06 mg/kg
Activity (Secale cereale [8]): 0.23 mg/kg
Activity (Secale cereale [9]): 5.42 mg/kg
Activity (Secale cereale [10]): 13.11 mg/kg
Activity (Secale cereale [11]): 4.73 g
Activity (Secale cereale [12]): 0.1 mg/kg
Activity (Secale cereale [13]): 1.09 mg/kg
Activity (Secale cereale [14]): 1.2 mg/kg
Activity (Secale cereale [15]): 0.43 mg/kg
Activity (Secale cereale [16]): 0.69 mg/kg
Activity (Secale cereale [17]): 3.88 mg/kg
Activity (Secale cereale [18]): 0.37 mg/kg
Activity (Secale cereale [19]): 0.13 mg/kg
Activity (Secale cereale [20]): 0.33 mg/kg
Activity (Secale cereale [21]): 6.67 mg/kg
Activity (Secale cereale [22]): 1.64 g
